# In patent US9352015B2, “Antimicrobial peptides” (priority 2009, dated 2016):
# Where “and” joins values, the source holds several entries; their conditions need not be identical. Identical values can stand only once. Like-named read-outs stand apart in the source and are kept apart here.
# Assays:
# [1] = system: Methicillin Resistant Staphylococcus aureus (MRSA) and Staphylococcus aureus; format: cell-based; conditions: Mueller Hinton medium; for MIC: 24 hours at 37° C.
# Procedure, shortened: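 MICs by microtiter broth dilution in triplicate determinations, mostly LB no-salt medium (sometimes MH or BHI), final inoculum 5×10^5 CFU/ml (1×10^5 CFU/ml in the MH variant), 24 h at 37 °C. MIC is the lowest peptide concentration inhibiting growth; tested on 20 clinical MRSA and S. aureus isolates.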
# Acinetobacter baumannii = format: cell-based
# Procedure, shortened: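 Microtiter broth dilution in triplicate, mainly LB no-salt medium (MH or BHI in some cases), peptides serially diluted, final inoculum 5×10^5 CFU/ml (1×10^5 CFU/ml in MH variant); 24 h at 37° C. MIC is the lowest peptide concentration inhibiting growth, given in micromolar against clinical isolates.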
# [2] = RP-HPLC retention as measure of overall peptide hydrophobicity; format: physicochemical; conditions: pH 2, room temperature
# Experimental: Crude and purified peptides were analyzed on an Agilent 1100 series liquid chromatograph (Little Falls, Del.). Runs were performed on a Zorbax 300 SB-C8 column (150×2.1 mm I.D.; 5 μm particle size, 300 Å pore size) from Agilent Technologies using linear AB gradient (1% acetonitrile/min) and a flow rate of 0.25 ml/min, where eluant A was 0.2% aqueous TFA, pH 2 and eluant B was 0.2% TFA in acetonitrile.
# Pseudomonas aeruginosa = conditions: for MIC PAO 1: 37° C., 24 h, strain PAO1; for MIC GM (geometric mean of the MIC values): six P. aeruginosa strains; for MIC CP 204: strain CP204; for MIC M 2: strain M2; for MIC PA 14: strain PA14; for MIC PAK: strain PAK; for MIC WR 5: strain WR5
# human erythrocytes = assay: Hemolytic activity against human erythrocytes (HC50 / MHC, microtiter dilution); format: cell-based
# Experimental: (§1) Hemoglobin release was determined spectrophotometrically at 570 nm. The hemolytic activity was determined as the peptide concentration that caused 50% hemolysis of erythrocytes after 18 h (HC50). […] HC50 was determined by a plot of peptide concentration versus percent lysis.
# [3] = as above; format: cell-based; conditions: 1% human erythrocytes, pH 7.4, read-out: Hemolytic activity HC50
# Experimental: as §1
# [4] = human erythrocytes, concentration of peptide that results in 50% hemolysis after 18 hours at 37° C.
# [5] = human red blood cells, 50% hemolysis after 18 h
structure (smiles),measurement,setting,value
"CC[C@@H](C)[C@@H](NC(=O)[C@@H](C)NC(=O)[C@@H](CCCCN)NC(=O)[C@@H](CC(C)C)NC(=O)[C@@H](C)NC(=O)[C@H](NC(=O)[C@@H](Cc1c[nH]cn1)NC(=O)[C@@H](CC(C)C)NC(=O)[C@H](NC(=O)[C@H](NC(=O)[C@@H](CCCCN)NC(=O)[C@@H](CCCCN)NC(=O)[C@@H](C)NC(=O)[C@@H](CO)NC(=O)[C@@H](CCCCN)NC(=O)[C@@H](Cc1ccccc1)NC(=O)[C@H](NC(=O)[C@@H](CCCCN)NC(=O)[C@@H](CC(C)C)NC(=O)[C@@H](Cc1ccccc1)NC(=O)[C@@H](CO)NC(=O)[C@@H](CCCCN)NC(=O)[C@@H](Cc1c[nH]c2ccccc12)NC(=O)[C@@H](CCCCN)NC(C)=O)[C@H](C)O)[C@H](C)O)C(C)C)[C@H](C)O)C(=O)N[C@H](CO)C(=O)N[C@H](CO)C(N)=O [Peptide D1, Ac-KWKSFLKTFKSAKKTVLHTALKAISS-amide]",MIC,[1]; S. aureus strain 1,23.9 µM
same,MIC,"[1]; S. aureus strain 2, R (MRSA resistant to Oxacillin)",12.0 µM
same,MIC,[1]; S. aureus strain 3,23.9 µM
same,MIC,"[1]; S. aureus strain 4, R (MRSA resistant to Oxacillin)",23.9 µM
same,MIC,[1]; S. aureus strain 5,23.9 µM
same,MIC,[1]; S. aureus strain 6,23.9 µM
same,MIC,"[1]; S. aureus strain 7, R (MRSA resistant to Oxacillin)",3.0 µM
same,MIC,[1]; S. aureus strain 8,95.5 µM
same,MIC,"[1]; S. aureus strain 9, R (MRSA resistant to Oxacillin)",12.0 µM
same,MIC,[1]; S. aureus strain 10,12.0 µM
same,MIC,"[1]; S. aureus strain 11, R (MRSA resistant to Oxacillin)",12.0 µM
same,MIC,"[1]; S. aureus strain 12, R (MRSA resistant to Oxacillin)",6.0 µM
same,MIC,[1]; S. aureus strain 13,1.5 µM
same,MIC,"[1]; S. aureus strain 14, R (MRSA resistant to Oxacillin)",6.0 µM
same,MIC,[1]; S. aureus strain 15,47.7 µM
same,MIC,"[1]; S. aureus strain 16, R (MRSA resistant to Oxacillin)",23.9 µM
same,MIC,[1]; S. aureus strain 17,23.9 µM
same,MIC,[1]; S. aureus strain 18,23.9 µM
same,MIC,[1]; S. aureus strain 19,47.7 µM
same,MIC,[1]; S. aureus strain 20,12.0 µM
same,MIC GM (geometric mean),[1]; geometric mean of the MIC values from 20 different isolates of MRSA/SA,15.7 µM
same,MIC,"Acinetobacter baumannii; A. baumannii strain 1 ATCC 17978, Mueller Hinton medium, 24 hours at 37° C.",0.8 µM
same,MIC,"Acinetobacter baumannii; A. baumannii strain 2 ATCC 19606, Mueller Hinton medium, 24 hours at 37° C.",1.5 µM
same,MIC,"Acinetobacter baumannii; A. baumannii strain 3, 649 Blood, Mueller Hinton medium, 24 hours at 37° C.",0.8 µM
same,MIC,"Acinetobacter baumannii; A. baumannii strain 4, 689 Groin, Mueller Hinton medium, 24 hours at 37° C.",0.8 µM
same,MIC,"Acinetobacter baumannii; A. baumannii strain 5, 759 Gluteus, Mueller Hinton medium, 24 hours at 37° C.",1.5 µM
same,MIC,"Acinetobacter baumannii; A. baumannii strain 6, 821 Urine, Mueller Hinton medium, 24 hours at 37° C.",1.5 µM
same,MIC,"Acinetobacter baumannii; A. baumannii strain 7, 884 Axilla, Mueller Hinton medium, 24 hours at 37° C.",1.5 µM
same,MIC,"Acinetobacter baumannii; A. baumannii strain 8, 899 Perineum, Mueller Hinton medium, 24 hours at 37° C.",1.5 µM
same,MIC,"Acinetobacter baumannii; A. baumannii strain 9, 964 Throat, Mueller Hinton medium, 24 hours at 37° C.",1.5 µM
same,MIC,"Acinetobacter baumannii; A. baumannii strain 10, 985 Pleural fluid, Mueller Hinton medium, 24 hours at 37° C.",0.8 µM
same,MIC,"Acinetobacter baumannii; A. baumannii strain 11, 1012 Sputum, Mueller Hinton medium, 24 hours at 37° C.",0.8 µM
same,Antimicrobial Activity MIC against A. baumannii,"Acinetobacter baumannii; geometric mean (GM-MIC), 11 clinical isolates",1.1 µM
same,MIC GM (geometric mean),"Acinetobacter baumannii; geometric mean of the MIC values from 11 different isolates of Acinetobacter baumannii, Mueller Hinton medium",1.1 µM
same,Acinetobacter baumannii MICGM,"Acinetobacter baumannii; geometric mean, 11 different isolates, 24 hours at 37° C.",1.1 µM
same,Hydrophobicity (retention time in RP-HPLC),[2],76.8 min and 76.75 min
same,MIC PAO 1,Pseudomonas aeruginosa; Brain Heart Infusion medium,31.3 µg/mL
same,MIC GM (geometric mean of the MIC values),Pseudomonas aeruginosa; Brain Heart Infusion medium,31.2 µg/mL
same,MIC CP 204,Pseudomonas aeruginosa; Brain Heart Infusion medium,62.5 µg/mL
same,MIC M 2,Pseudomonas aeruginosa; Brain Heart Infusion medium,62.5 µg/mL
same,MIC PA 14,Pseudomonas aeruginosa; Brain Heart Infusion medium,15.6 µg/mL
same,MIC PAK,Pseudomonas aeruginosa; Brain Heart Infusion medium,31.3 µg/mL
same,MIC WR 5,Pseudomonas aeruginosa; Brain Heart Infusion medium,15.6 µg/mL
same,MIC PAO 1,Pseudomonas aeruginosa; Mueller Hinton medium,7.8 µg/mL
same,MIC GM (geometric mean of the MIC values),Pseudomonas aeruginosa; Mueller Hinton medium,12.4 µg/mL
same,MIC CP 204,Pseudomonas aeruginosa; Mueller Hinton medium,15.6 µg/mL
same,MIC M 2,Pseudomonas aeruginosa; Mueller Hinton medium,7.8 µg/mL
same,MIC PA 14,Pseudomonas aeruginosa; Mueller Hinton medium,15.6 µg/mL
same,MIC PAK,Pseudomonas aeruginosa; Mueller Hinton medium,15.6 µg/mL
same,MIC WR 5,Pseudomonas aeruginosa; Mueller Hinton medium,15.6 µg/mL
same,Pseudomonas aeruginosa MICGM,"Pseudomonas aeruginosa; geometric mean, 6 different isolates, 24 hours at 37° C.",4.1 µM
same,Hemolytic activity HC50,human erythrocytes; 50% hemolysis after 18 hours at 37° C.,141 µM
same,Hemolytic activity HC50,human erythrocytes; [4],140.9 µM
same,Hemolytic activity HC50,human erythrocytes; [5],421.5 µg/mL
same,Hemolytic activity HC50,"human erythrocytes; human red blood cells, 18 h",140.9 µM
same,HC50 at 18 h,[3]; [4],141 µM
same,HC50 at 18 h,[3]; [5],422 µg/mL
